Data reported in PMC5465257, “Evaluation of JNJ-54717793 a Novel Brain Penetrant Selective Orexin 1 Receptor Antagonist in Two Rat Models of Panic Attack Provocation” (Frontiers in Pharmacology, 2017).

Columns and labels:
human OX1R = molecular target: T1, human OX1R (Homo sapiens, UniProt O43613); test: Human OX1R competitive radioligand binding ([3H]SB-674042); set-up: expressed in transfected cells; host or cells: clonal CHO-K1 cells
T1 sequence (O43613 1-425): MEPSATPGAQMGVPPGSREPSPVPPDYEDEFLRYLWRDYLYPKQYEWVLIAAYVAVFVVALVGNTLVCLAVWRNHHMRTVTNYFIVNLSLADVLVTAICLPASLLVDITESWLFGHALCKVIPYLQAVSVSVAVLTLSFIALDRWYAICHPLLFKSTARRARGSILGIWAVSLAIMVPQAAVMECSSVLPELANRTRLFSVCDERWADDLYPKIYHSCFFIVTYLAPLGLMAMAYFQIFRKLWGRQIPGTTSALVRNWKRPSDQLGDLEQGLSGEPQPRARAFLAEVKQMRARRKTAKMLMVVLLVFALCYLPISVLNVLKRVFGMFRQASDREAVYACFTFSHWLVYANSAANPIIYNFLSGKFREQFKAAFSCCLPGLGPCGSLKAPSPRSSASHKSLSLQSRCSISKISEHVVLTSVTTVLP
Procedure: Human or rat OX1R binding was measured in competitive radioligand binding assays using [^3H]SB-674042 (1-(5-(2-fluoro-phenyl)-2-methyl-thiazol-4-yl)-1-((S)-2-(5-phenyl-(1,3,4)oxadiazol-2-ylmethyl)-pyrrolidin-l-yl)-methanone) as a tracer (4 nM, specific activity 35 Ci/mmol) as previously described ([Langmead et al., 2004]). Cell membranes were prepared from clonal CHO K1 cells transfected with the human OX1R or clonal HEK-293 cells transfected with the rat OX1R. Dilutions of test compounds were made in Dulbecco’s PBS from 10 mM stocks dissolved in dimethyl sulfoxide. After a 60 min incubation at room temperature, binding reactions were filtered. The membranes were counted in a scintillation counter. Non-specific binding was determined in the presence of 10 μM almorexant. Affinities of compounds for the human OX2R were measured by competitive radioligand binding using tritiated N-ethyl-2-[(6-methoxy-pyridin-3-yl)-(toluene-2-sulfonyl)-amino]-N-pyridin-3-ylmethyl-acetamide (EMPA) (2 nM, specific activity 27 Ci/mmol) ([Malherbe et al., 2009]). Cell membranes were prepared from a stable pool of HEK-293 cells transfected with the human OX2R. Non-specific binding was determined with 10 μM almorexant.
The Ki of the test compounds was calculated based on non-linear regression (one site competition) using Graphpad Prism. […]

rat OX1R = molecular target: T2, rat OX1R (Rattus norvegicus, UniProt P56718); test: Calcium mobilization functional assay, HEK-293 cells, OX-A EC80
T2 sequence (P56718 1-416): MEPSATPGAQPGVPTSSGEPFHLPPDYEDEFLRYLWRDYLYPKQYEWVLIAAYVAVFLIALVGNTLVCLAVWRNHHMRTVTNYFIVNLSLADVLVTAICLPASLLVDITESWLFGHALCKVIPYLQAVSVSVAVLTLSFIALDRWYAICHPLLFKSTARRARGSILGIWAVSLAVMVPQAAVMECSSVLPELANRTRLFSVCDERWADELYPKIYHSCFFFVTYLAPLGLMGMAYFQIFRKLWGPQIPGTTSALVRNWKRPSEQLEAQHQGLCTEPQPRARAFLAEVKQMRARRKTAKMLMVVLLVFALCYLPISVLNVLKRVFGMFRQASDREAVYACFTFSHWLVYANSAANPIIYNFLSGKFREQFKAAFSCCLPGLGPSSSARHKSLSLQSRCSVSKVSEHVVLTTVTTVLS
Procedure: Stably transfected CHO-K1 cells for the human OX1R or HEK-293 cells for the rat OX1R were used for the in vitro functional assays. […] Since the intracellular calcium response is transient and not consistent with equilibrium assumptions, the assays were performed by giving a standard, EC80 dose of the OX agonist and calculating a pKB from inhibition of the agonist response by a dose range of the antagonists. The cells were plated in black 96 well tissue culture plates with clear bottoms at 50,000 cells/well and grown overnight at 37°C in 5% carbon dioxide (CO2). […] The cell plate was then transferred to the Molecular Devices Fluorometric Imaging Plate Reader (FLIPR) Tetra instrument, which adds the OX agonist and monitors changes in fluorescence which reflect intracellular calcium levels.
Results were calculated using GraphPad Prism (San Diego, CA, United States) software. Raw data from the FLIPR Tetra was exported as the difference between maximum and minimum fluorescence observed for each well. A non-linear regression was used to determine the agonist EC50 and antagonist IC50 for each plate, then the antagonist KB was calculated according to Cheng and Prusoff ([Cheng and Prusoff, 1973]).

**Q.** With `O=C(c1cccc(F)c1-c1ncccn1)N1[C@@H]2CC[C@H]1[C@H](Nc1cnc(C(F)(F)F)cn1)C2` [JNJ-54717793, (1S,2R,4R)-7-([(3-fluoro-2-pyrimidin-2-ylphenyl)carbonyl]-N-[5-(trifluoromethyl)pyrazin-2-yl]-7-azabicyclo[2.2.1]heptan-2-amine)] as the compound, how does the Ki (human OX1R) read?
**A.** 14.8 nM

**Q.** And the “binding selectivity at the human OX1R compared to the human OX2R” value (human OX1R; hOX1R versus hOX2R)?
**A.** 50 fold

**Q.** And the Kb (rat OX1R)?
**A.** 35.5 nM
